Values quoted from earlier work in patent US4663309A, “Novel peptide hormones with calcitonin-like activity” (University Patents, Inc., priority 1985, dated 1987).

Key:
[1] = molecular target: T1, calcitonin receptors (brain particulate fraction) (Rattus norvegicus, UniProt P32214); design: from tissue; details: rat brain homogenates; literature value; read-out: IC50, [125I]-SCT-I binding to rat brain, value found by Nakamuta et al.; cited from earlier work
T1 sequence (P32214 25-516): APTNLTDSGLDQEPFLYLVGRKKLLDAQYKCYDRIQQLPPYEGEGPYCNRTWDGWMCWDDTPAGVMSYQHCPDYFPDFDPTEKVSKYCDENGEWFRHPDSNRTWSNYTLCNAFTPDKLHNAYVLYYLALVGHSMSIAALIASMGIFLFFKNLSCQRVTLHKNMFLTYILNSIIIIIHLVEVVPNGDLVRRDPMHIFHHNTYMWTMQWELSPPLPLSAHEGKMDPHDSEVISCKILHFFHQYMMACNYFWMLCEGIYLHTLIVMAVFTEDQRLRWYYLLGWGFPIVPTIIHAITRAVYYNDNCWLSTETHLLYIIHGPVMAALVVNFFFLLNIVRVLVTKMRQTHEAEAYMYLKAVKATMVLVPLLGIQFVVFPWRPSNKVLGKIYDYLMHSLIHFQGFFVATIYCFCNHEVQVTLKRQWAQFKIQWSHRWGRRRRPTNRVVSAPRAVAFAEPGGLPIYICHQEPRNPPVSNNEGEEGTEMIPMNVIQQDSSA

[2] = literature value; cited from earlier work

porcine calcitonin [PCT]
IC50 [1]: 17 nM
α-helicity in 50% 2-chloroethanol (Brewer and Edelhoch) [2]: 50%
